Like-named read-outs stand apart in the source and are kept apart here.

Test [1] relates to HIV mutant strain Y181C. The test is described as follows: Cell-based assay using BH-10 cells, Y181C mutant. The protocol: (§1) In a typical embodiment, the NNRTIs display an EC50 in a mutant HIV strain of less than approximately 5, 2.5, 1 or 0.1 μM concentration. The degree of cross-resistance against a drug resistant strain of HIV is measured by assessing the EC50 of the desired oxo-pyrimidine compound in the target mutated, i.e., drug resistant, virus.
(§2) The degree of cross-resistance against a drug resistant strain of HIV can easily be measured by assessing the EC50 of the desired indole in the target mutated i.e., drug resistant, virus.

Test [2] relates to HIV mutant strain K103N/Y181C. Nature of the test: Cell-based assay using BH-10 cells, K103N/Y181C mutant. The protocol:
as §1, §2

Test [3] deals with HIV BH-10 WT. Nature of the test: Cell-based assay using BH-10 cells, wild type.
Where [4] appears, read: Human immunodeficiency virus 1, read-out: EC50 Y181C, BH-10 cells, Y181C mutant.
Where [5] appears, read: Human immunodeficiency virus 1, read-out: EC50 K103N/Y181C, BH-10 cells, K103N/Y181C mutant.
Setting [6] is: Human immunodeficiency virus 1, read-out: EC50 WT///B, BH-10 cells, wild type.
Where [7] appears, read: BH-10 cells, Y181C mutant, read-out: EC50 Y181C.
[8] abbreviates: BH-10 cells, K103N/Y181C mutant, read-out: EC50 K103N/Y181C.
[9] abbreviates: BH-10 cells, wild type, read-out: EC50 WT///B.

Turning to `COP(=O)(c1cc(C)cc(C)c1)c1c(C(=O)NCc2ccccc2C(F)(F)F)[nH]c2ccc(Cl)cc12` (stereo not drawn) [Compound 18aal], the EC50 in test [1] (setting [4]) was determined as 19.7 nM; in test [2] (setting [5]), 21.8 nM; in test [3] (setting [6]) it was 30.1 nM.
For `COP(=O)(c1cc(C)cc(C)c1)c1c(C(=O)NCc2ccccn2)[nH]c2ccc(Cl)cc12` (stereo not drawn) [Compound 18aam] the same measures were 6.8 nM, 22.5 nM and 17.3 nM.
Regarding `COP(=O)(c1cc(C)cc(C)c1)c1c(C(=O)NCc2cccnc2)[nH]c2ccc(Cl)c(F)c12` (stereo not drawn) [Compound 18aan], the EC50 in test [1] (setting [4]) was determined as 304 nM; in test [2] (setting [5]) it was 600 nM; in test [3] (setting [6]), 15 nM.
Consider `COP(=O)(c1ccccc1)c1c(C(=O)N[C@H](C(N)=O)c2ccccc2)[nH]c2ccc(Cl)cc12` (stereo partly drawn) [Compound 18aao], for which the figures for the EC50 in test [1] (setting [4]), in test [2] (setting [5]) and in test [3] (setting [6]) were 287 nM, 118 nM and 38.1 nM, respectively.
Take `C=Cc1cccc(P(=O)(OC)c2c(C(N)=O)[nH]c3ccc(Cl)cc23)c1` (stereo not drawn) [Compound 18aaq]: the EC50 in test [1] (setting [4]) stood at 18.4 nM; in test [2] (setting [5]), 27.6 nM; in test [3] (setting [6]) it was 7.2 nM.
Regarding `CCc1cccc(P(=O)(OC)c2c(C(=O)NCc3ccncc3)[nH]c3ccc(Cl)cc23)c1` (stereo not drawn) [Compound 18ap], the EC50 in test [1] (setting [4]) amounted to 3.7 nM; in test [2] (setting [5]) it was 5.8 nM; in test [3] (setting [6]), 5.8 nM.
Consider `COP(=O)(c1cccc(C(C)C)c1)c1c(C(=O)NCc2ccncc2)[nH]c2ccc(Cl)cc12` (stereo not drawn) [Compound 18aq], for which the results for the EC50 in test [1] (setting [4]), in test [2] (setting [5]) and in test [3] (setting [6]) were 31.7 nM, 18.6 nM and 12 nM, respectively.
Take `COP(=O)(c1ccccc1)c1c(C(=O)NCc2cncn2C)[nH]c2ccc(Cl)cc12` (stereo not drawn) [Compound 18as]: the EC50 was 9.9 nM in test [1] (setting [4]), 0.6 nM in test [2] (setting [5]) and 0.3 nM in test [3] (setting [6]).
As for `COP(=O)(c1ccccc1)c1c(C(=O)NCc2ccco2)[nH]c2ccc(Cl)cc12` (stereo not drawn) [Compound 18at], the EC50 in test [1] (setting [4]) was determined as 1.5 nM; in test [2] (setting [5]), 0.5 nM; in test [3] (setting [6]), 1.8 nM.
For `COc1cccc(P(=O)(OC)c2c(C(=O)NCc3ccco3)[nH]c3ccc(Cl)cc23)c1` (stereo not drawn) [Compound 18au] the same measures were 3.3 nM, 6 nM and 0.8 nM.
As for `COP(=O)(c1cc(C)cc(C)c1)c1c(C(=O)NCc2ccncc2)[nH]c2ccc(Cl)cc12` (stereo not drawn) [Compound 18ax], the EC50 in test [1] (setting [4]) is 7.2 nM; in test [2] (setting [5]) it was 2.3 nM; in test [3] (setting [6]), 3 nM.
Consider `COP(=O)(c1cc(C)cc(C)c1)c1c(C(=O)NCN2CCOCC2)[nH]c2ccc(Cl)cc12` (stereo not drawn) [Compound 18ay], for which the EC50 in test [1] (setting [4]) was found to be 19.8 nM; in test [2] (setting [5]) it was 9.3 nM; in test [3] (setting [6]), 3.5 nM.
For `COP(=O)(c1cc(C)cc(C)c1)c1c(C(=O)NCc2ccccc2F)[nH]c2ccc(Cl)cc12` (stereo not drawn) [Compound 18az], in that order: 16.7 nM, 8.5 nM and 3 nM.
With `COP(=O)(c1cccc(C)c1)c1c(C(=O)NCc2ccco2)[nH]c2ccc(Cl)cc12` (stereo not drawn) [Compound 18b], the values for the EC50 in test [1] (setting [4]), in test [2] (setting [5]) and in test [3] (setting [6]) were 10.1 nM, 4 nM and 3.6 nM, respectively.
For `COP(=O)(c1cccc(CF)c1)c1c(C(=O)NCc2ccncc2)[nH]c2ccc(Cl)cc12` (stereo not drawn) [Compound 18c], the EC50 in test [1] (setting [4]) turned out to be 2.9 nM; in test [2] (setting [5]), 4.7 nM; in test [3] (setting [6]), 2 nM.
Regarding `COP(=O)(c1cc(C)cc(F)c1)c1c(C(=O)NCc2ccncc2)[nH]c2ccc(Cl)cc12` (stereo not drawn) [Compound 18d], the figures for the EC50 in test [1] (setting [4]), in test [2] (setting [5]) and in test [3] (setting [6]) were 9.4 nM, 3.7 nM and 2.3 nM, respectively.
As to `COP(=O)(c1cc(F)cc(F)c1)c1c(C(=O)NCc2ccncc2)[nH]c2ccc(Cl)cc12` (stereo not drawn) [Compound 18e], the EC50 in test [1] (setting [4]) stood at 14.8 nM; in test [2] (setting [5]), 12 nM; in test [3] (setting [6]) it was 3.5 nM.
Take `COP(=O)(c1cc(C)cc(C)c1)c1c(C(=O)NCc2cccnc2)[nH]c2ccc(Cl)cc12` (stereo not drawn) [Compound 18f]: the EC50 in test [1] (setting [4]) is 5.9 nM; in test [2] (setting [5]), 3.4 nM; in test [3] (setting [6]), 2.3 nM.
Take `COP(=O)(c1cc(C)cc(C)c1)c1c(C(=O)NCCc2ccncc2)[nH]c2ccc(Cl)cc12` (stereo not drawn) [Compound 18g]: the EC50 was found to be 30.6 nM in test [1] (setting [4]), 9.8 nM in test [2] (setting [5]) and 11.6 nM in test [3] (setting [6]).
In the case of `COP(=O)(c1cc(C)cc(C)c1)c1c(C(=O)NCc2ccncc2F)[nH]c2ccc(Cl)cc12` (stereo not drawn) [Compound 18h], the EC50 worked out at 14.3 nM in test [1] (setting [4]), 4.3 nM in test [2] (setting [5]) and 1.7 nM in test [3] (setting [6]).
For the molecule `COP(=O)(c1cc(C)cc(C)c1)c1c(C(=O)NCc2cnccn2)[nH]c2ccc(Cl)cc12` (stereo not drawn) [Compound 18i], the EC50 was determined as 16.8 nM in test [1] (setting [4]), 1.8 nM in test [2] (setting [5]) and 3 nM in test [3] (setting [6]).
For `COP(=O)(c1cc(C)cc(C)c1)c1c(C(=O)NCc2cncnc2)[nH]c2ccc(Cl)cc12` (stereo not drawn) [Compound 18j], the EC50 in test [1] (setting [7]) was determined as 5.1 nM; in test [2] (setting [8]), 1.9 nM; in test [3] (setting [9]), 3.6 nM.
For `COP(=O)(c1cc(C)cc(C)c1)c1c(C(=O)NCc2ccc(Br)cc2)[nH]c2ccc(Cl)cc12` (stereo not drawn) [Compound 18k], the results for the EC50 in test [1] (setting [4]), in test [2] (setting [5]) and in test [3] (setting [6]) were 102 nM, 50.4 nM and 39.3 nM, respectively.
For `COP(=O)(c1cc(C)cc(C)c1)c1c(C(=O)NCc2ccncn2)[nH]c2ccc(Cl)cc12` (stereo not drawn) [Compound 18l] the same measures were 2.5 nM, 2.2 nM and 1.7 nM.
As to `COP(=O)(c1cc(C)cc(C)c1)c1c(C(=O)NCc2ccccc2N)[nH]c2ccc(Cl)cc12` (stereo not drawn) [Compound 18n], the EC50 came to 87.8 nM in test [1] (setting [4]), 23.1 nM in test [2] (setting [5]) and 19.5 nM in test [3] (setting [6]).
Consider `COP(=O)(c1cc(F)cc(F)c1)c1c(C(=O)NCc2ccc(C#N)cc2)[nH]c2ccc(Cl)cc12` (stereo not drawn) [Compound 18q], for which the EC50 in test [1] (setting [4]) came to 35.7 nM; in test [2] (setting [5]), 54.2 nM; in test [3] (setting [6]), 3 nM.
With `COP(=O)(c1cc(C)cc(C)c1)c1c(C(=O)NCc2ccncc2)[nH]c2ccc(Cl)c(F)c12` (stereo not drawn) [Compound 18r], the EC50 in test [1] (setting [4]) amounted to 16.5 nM; in test [2] (setting [5]), 3.6 nM; in test [3] (setting [6]), 3.8 nM.
Regarding `COP(=O)(c1cc(F)cc(F)c1)c1c(C(=O)NCc2cc[n+]([O-])cc2)[nH]c2ccc(Cl)cc12` (stereo not drawn) [Compound 22a], the EC50 amounted to 52.4 nM in test [1] (setting [4]), 11.3 nM in test [2] (setting [5]) and 3.1 nM in test [3] (setting [6]).
On to `COP(=O)(c1cc(C)cc(C#N)c1)c1c(C(=O)NCc2cc[n+]([O-])cc2)[nH]c2ccc(Cl)cc12` (stereo not drawn) [Compound 22ak], for which the EC50 was 6.7 nM in test [1] (setting [4]), 11 nM in test [2] (setting [5]) and 7 nM in test [3] (setting [6]).
For `COP(=O)(c1cc(C)cc(C)c1)c1c(C(=O)NCc2ccc[n+]([O-])c2)[nH]c2ccc(Cl)cc12` (stereo not drawn) [Compound 22b], in that order: 18.7 nM, 3.2 nM and 3.5 nM.
`COP(=O)(c1cc(C)cc(C)c1)c1c(C(=O)NCCc2cc[n+]([O-])cc2)[nH]c2ccc(Cl)cc12` (stereo not drawn) [Compound 22c]: the EC50 in test [1] (setting [4]) was found to be 10.1 nM; in test [2] (setting [5]) it was 26.8 nM; in test [3] (setting [6]) it was 2.8 nM.
Consider `COP(=O)(c1cc(C)cc(C)c1)c1c(C(=O)NCc2cc[n+]([O-])cc2F)[nH]c2ccc(Cl)cc12` (stereo not drawn) [Compound 22d], for which the EC50 in test [1] (setting [4]) turned out to be 1.5 nM; in test [2] (setting [5]), 6.7 nM; in test [3] (setting [6]), 2.9 nM.
As for `COP(=O)(c1cc(C)cc(C)c1)c1c(C(=O)NCc2cnc[n+]([O-])c2)[nH]c2ccc(Cl)cc12` (stereo not drawn) [Compound 22g], the EC50 worked out at 10.7 nM in test [1] (setting [4]), 3 nM in test [2] (setting [5]) and 2.1 nM in test [3] (setting [6]).
For `CCc1cc(C)cc(P(=O)(OC)c2c(C(=O)NCc3ccc[n+]([O-])c3)[nH]c3ccc(Cl)cc23)c1` (stereo not drawn) [Compound 22h] the same measures were 5.8 nM, 3.6 nM and 1.6 nM.
Take `COP(=O)(c1cc(C)cc(C)c1)c1c(C(=O)NCc2ccc[n+]([O-])c2)[nH]c2ccc(Cl)c(F)c12` (stereo not drawn) [Compound 22j]: the EC50 in test [1] (setting [7]) stood at 9.9 nM; in test [2] (setting [8]) it was 6 nM; in test [3] (setting [9]), 6.8 nM.
For the molecule `COP(=O)(c1cc(C)cc(C)c1)c1c(C(=O)NCc2cc[n+](C)cc2)[nH]c2ccc(Cl)cc12` (stereo not drawn) [Compound 22l], the results for the EC50 in test [1] (setting [4]), in test [2] (setting [5]) and in test [3] (setting [6]) were 269 nM, 77.4 nM and 6.1 nM, respectively.
Take `COP(=O)(c1cc(C)cc(C)c1)c1c(C(=O)NCc2cc[n+]([O-])cc2)[nH]c2ccc(Cl)c(F)c12` (stereo not drawn) [Compound 22m]: the EC50 in test [1] (setting [4]) came to 2.6 nM; in test [2] (setting [5]), 1.9 nM; in test [3] (setting [6]), 2.1 nM.
As to `COP(=O)(c1cc(C)cc(C)c1)c1c(C(=O)NCc2cc[n+]([O-])cc2)[nH]c2ccc(Cl)cc12` (stereo not drawn) [Compound 22n], the EC50 in test [1] (setting [4]) was found to be 8.8 nM; in test [2] (setting [5]), 4.5 nM; in test [3] (setting [6]), 2 nM.
Regarding `COP(=O)(c1cc(C)cc(C)c1)c1c(C(=O)NCc2cccc[n+]2[O-])[nH]c2ccc(Cl)cc12` (stereo not drawn) [Compound 22p], the EC50 in test [1] (setting [4]) stood at 51.3 nM; in test [2] (setting [5]) it was 17.9 nM; in test [3] (setting [6]) it was 1.9 nM.
For `COP(=S)(c1ccccc1)c1c(C(N)=O)[nH]c2ccc(Cl)cc12` (stereo not drawn) [Compound 25b], in that order: 41.4 nM, 89.9 nM and 0.4 nM.
In the case of `COP(=O)(c1cccc(/C=C/C#N)c1)c1c(C(N)=O)[nH]c2ccc(Cl)cc12` (stereo not drawn) [Compound 33a], the figures for the EC50 in test [1] (setting [4]), in test [2] (setting [5]) and in test [3] (setting [6]) were 2 nM, 3.4 nM and 3.2 nM, respectively.
